One block for each compound: values may come before it.
Experiments:
Prothrombin = Prothrombin (Homo sapiens, UniProt P00734); experiment: Inhibition of thrombin
Aurora kinase A = molecular target: T1, Aurora kinase A (Homo sapiens, UniProt O14965)
T1 sequence (O14965 whole entry): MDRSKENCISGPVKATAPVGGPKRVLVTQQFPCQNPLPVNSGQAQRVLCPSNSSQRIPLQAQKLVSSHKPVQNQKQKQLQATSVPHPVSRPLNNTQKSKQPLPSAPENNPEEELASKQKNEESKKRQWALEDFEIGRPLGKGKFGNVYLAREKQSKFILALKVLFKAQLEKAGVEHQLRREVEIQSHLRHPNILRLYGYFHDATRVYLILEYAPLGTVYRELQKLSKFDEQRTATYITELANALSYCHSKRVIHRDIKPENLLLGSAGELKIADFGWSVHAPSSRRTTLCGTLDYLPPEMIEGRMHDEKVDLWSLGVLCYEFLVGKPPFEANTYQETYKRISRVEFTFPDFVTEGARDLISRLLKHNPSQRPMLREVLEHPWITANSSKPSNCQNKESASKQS

[1] = molecular target: Urokinase-type plasminogen activator (Homo sapiens, UniProt P00749)
[2] = molecular target: Heat shock protein HSP 90-beta (Homo sapiens, UniProt P08238)
Sequence of Heat shock protein HSP 90-beta (P08238 whole entry): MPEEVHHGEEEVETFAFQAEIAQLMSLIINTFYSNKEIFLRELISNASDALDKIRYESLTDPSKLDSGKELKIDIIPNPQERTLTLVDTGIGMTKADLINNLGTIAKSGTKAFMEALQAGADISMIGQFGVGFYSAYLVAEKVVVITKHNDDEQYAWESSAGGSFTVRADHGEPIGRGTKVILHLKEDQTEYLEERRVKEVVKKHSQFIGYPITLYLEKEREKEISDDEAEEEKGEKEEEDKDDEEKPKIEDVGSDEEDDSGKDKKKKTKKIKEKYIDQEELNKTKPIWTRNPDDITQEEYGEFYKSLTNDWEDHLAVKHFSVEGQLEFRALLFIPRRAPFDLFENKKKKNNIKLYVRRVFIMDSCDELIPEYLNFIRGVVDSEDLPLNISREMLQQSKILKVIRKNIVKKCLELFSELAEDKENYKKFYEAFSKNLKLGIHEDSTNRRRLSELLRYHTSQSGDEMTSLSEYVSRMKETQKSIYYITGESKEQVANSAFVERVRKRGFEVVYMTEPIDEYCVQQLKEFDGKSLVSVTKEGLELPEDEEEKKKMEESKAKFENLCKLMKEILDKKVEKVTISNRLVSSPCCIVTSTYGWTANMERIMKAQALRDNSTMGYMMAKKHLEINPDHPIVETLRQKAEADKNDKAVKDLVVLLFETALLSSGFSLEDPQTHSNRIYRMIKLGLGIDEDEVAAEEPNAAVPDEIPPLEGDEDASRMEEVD

[3] = molecular target: T2, Queuine tRNA-ribosyltransferase catalytic subunit 1 (Homo sapiens, UniProt Q9BXR0)
T2 sequence (Q9BXR0 whole entry): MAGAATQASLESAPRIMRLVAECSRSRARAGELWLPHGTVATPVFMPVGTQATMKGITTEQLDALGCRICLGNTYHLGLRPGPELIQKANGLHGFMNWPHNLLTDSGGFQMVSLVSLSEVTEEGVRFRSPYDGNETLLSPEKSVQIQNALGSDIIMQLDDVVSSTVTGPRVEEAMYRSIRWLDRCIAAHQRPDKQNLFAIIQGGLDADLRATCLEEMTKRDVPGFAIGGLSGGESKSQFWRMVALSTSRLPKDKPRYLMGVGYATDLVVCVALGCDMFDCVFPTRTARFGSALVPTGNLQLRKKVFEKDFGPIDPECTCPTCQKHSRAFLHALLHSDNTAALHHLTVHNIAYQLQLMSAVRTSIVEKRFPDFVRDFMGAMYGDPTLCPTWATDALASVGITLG

[4] = Inhibition of PDE4
[5] = molecular target: RAC-alpha serine/threonine-protein kinase (Homo sapiens, UniProt P31749); experiment: Inhibition of protein kinase B
Sequence of RAC-alpha serine/threonine-protein kinase (P31749 whole entry): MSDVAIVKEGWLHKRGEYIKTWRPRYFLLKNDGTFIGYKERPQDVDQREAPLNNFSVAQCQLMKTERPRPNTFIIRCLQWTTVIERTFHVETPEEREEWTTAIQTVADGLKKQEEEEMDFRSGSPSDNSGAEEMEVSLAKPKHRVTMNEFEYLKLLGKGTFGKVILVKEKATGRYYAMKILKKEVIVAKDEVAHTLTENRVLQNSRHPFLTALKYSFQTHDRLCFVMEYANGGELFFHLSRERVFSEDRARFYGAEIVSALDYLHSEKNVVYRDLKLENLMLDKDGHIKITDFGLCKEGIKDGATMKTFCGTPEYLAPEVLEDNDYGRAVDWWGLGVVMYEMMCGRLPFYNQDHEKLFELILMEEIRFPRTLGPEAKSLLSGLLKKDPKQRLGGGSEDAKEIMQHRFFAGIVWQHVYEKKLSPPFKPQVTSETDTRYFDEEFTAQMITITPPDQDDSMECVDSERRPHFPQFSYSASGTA

Caspase-1 = molecular target: T3, Caspase-1 (Homo sapiens, UniProt P29466); experiment: Inhibition of caspase 1
T3 sequence (P29466 whole entry): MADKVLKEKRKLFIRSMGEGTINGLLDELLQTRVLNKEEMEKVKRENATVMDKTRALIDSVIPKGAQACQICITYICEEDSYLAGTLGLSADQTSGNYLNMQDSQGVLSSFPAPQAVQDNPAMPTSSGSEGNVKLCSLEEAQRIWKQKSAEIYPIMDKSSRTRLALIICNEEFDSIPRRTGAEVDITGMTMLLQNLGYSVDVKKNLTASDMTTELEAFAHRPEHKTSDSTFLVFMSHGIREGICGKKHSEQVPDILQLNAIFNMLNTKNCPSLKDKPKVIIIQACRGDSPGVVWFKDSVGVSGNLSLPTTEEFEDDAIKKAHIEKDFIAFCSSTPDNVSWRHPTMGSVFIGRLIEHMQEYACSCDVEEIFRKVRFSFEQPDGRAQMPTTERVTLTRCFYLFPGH

Carbonic anhydrase 2 = Carbonic anhydrase 2 (Bos taurus, UniProt P00921)
Sequence of Carbonic anhydrase 2 (P00921 whole entry): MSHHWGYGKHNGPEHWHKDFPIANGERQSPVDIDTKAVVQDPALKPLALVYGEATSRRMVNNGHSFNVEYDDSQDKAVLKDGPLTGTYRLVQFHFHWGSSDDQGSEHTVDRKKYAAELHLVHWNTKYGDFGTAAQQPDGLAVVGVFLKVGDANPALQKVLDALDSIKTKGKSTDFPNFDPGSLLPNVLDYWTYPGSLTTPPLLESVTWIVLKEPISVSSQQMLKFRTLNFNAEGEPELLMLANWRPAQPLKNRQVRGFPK

SMILES: COc1ccc(S(=O)(=O)NC[C@@H](O)[C@H](Cc2ccccc2)NCc2cc(Cl)ccc2-n2cnnn2)cc1
IC50 (Prothrombin): 4 nM

SMILES: Nc1nc2cc(O)ccc2[nH]1
IC50 [1]: 200000 nM

SMILES: Nc1nc2ccccc2c(=O)[nH]1
Ki [3]: 2100 nM

SMILES: CCOC(=O)c1c(C)nn(-c2ccccc2Cl)c1C
IC50 [4]: 19 nM

SMILES: c1ccc(-c2cn[nH]c2)cc1
IC50 [5]: 135000 nM

SMILES: COc1cc2[nH]c3ncnc(Cl)c3c2cc1OC
IC50 (Aurora kinase A): 3000 nM

SMILES: O=C[C@H](CC(=O)O)NC(=O)CCCCCNC(=O)c1ccc(Nc2cnc3ccccc3n2)cc1
IC50 (Caspase-1): 190 nM

SMILES: Nc1ccc(S(=O)(=O)Nc2ncccn2)cc1 [SULFADIAZINE]
IC50 (Aurora kinase A): 21000 nM

SMILES: C#Cc1ccc(S(N)(=O)=O)cc1
Kd (Carbonic anhydrase 2): 37 nM

SMILES: CC(C)[C@@H](C(=O)N1CC2CCC(CC2)C1)n1cc(-c2ccc(S(N)(=O)=O)cc2)nn1
Kd (Carbonic anhydrase 2): 0.2 nM

More lines, now with the values ahead:

IC50 (Aurora kinase A): 94 nM
SMILES: COc1cc2[nH]c3ncnc(N4CCN(C(=S)Nc5ccc(S(=O)(=O)Nc6ncccn6)cc5)CC4)c3c2cc1OC

Kd [2]: 4000 nM
SMILES: Cc1cc(C#Cc2ccccc2/C=N/N2CCOC2=O)nc(N)n1

IC50 (Caspase-1): 5 nM
SMILES: O=C[C@H](CC(=O)O)NC(=O)c1ccc(CNC(=O)c2ccc(Nc3cnc4ccccc4n3)cc2)nc1

Ki [3]: 3700 nM
SMILES: COc1ccc(CCc2c3nc[nH]c3cc3c(=O)[nH]c(N)nc23)cc1

Kd [2]: 150000 nM
SMILES: O=C1OCC/C1=C\Nc1ccccc1

Source: ChEMBL document CHEMBL1157388, “Recent developments in fragment-based drug discovery” (J Med Chem, 2008)
